{"source": "patent US5958947A", "about": "“DNA-affinic hypoxia selective cytotoxins” (priority 1996, dated 1999)", "key": {"[1]": {"test_system": "V79 Chinese hamster lung cells", "test": "Radiosensitization of V79 cells", "assay_type": "cell-based", "conditions": "for EC (SER 1.6): Cricetulus griseus", "method": "(§1) Samples of V79 Chinese hamster lung cells used in the following experiments were prepared as follows. V79 cells, exponentially growing as monolayer cultures in RPMI 1640 medium (Mediatech) supplemented with 10% fetal calf serum, were trypsinized, centrifuged for 5 min, harvested, then suspended in 25 ml Erlenmeyer flasks fitted with rubber caps at 5×10^5 cells/ml (5 ml). Individual flasks either were shaken (100 rpm) at 37° C. under aerobic conditions or made hypoxic by gassing with a 95% N2 (nitrogen)/5% CO2 (carbon dioxide) humidified gas mixture for 1 hour.\nRadiosensitization studies were performed on V79 cells in a manner similar to the acute toxicity experiments, except that the survival fraction was determined after a predetermined radiation dose. […] One Gy is equal to 100 rads, wherein one rad is the quantity of ionizing radiation that results in the absorption of 100 ergs of energy per gram of irradiated material. Hypoxia was maintained throughout irradiation. […] Sensitization enhancement ratios (SER) were determined at a 10% survival level. […] The plotted points in FIGS. 3 and 4 represent the mean of 2 or 3 replicate experiments."}, "[2]": {"test": "Acute aerobic and hypoxic cytotoxicity (colony formation)", "assay_type": "cell-based, Chinese hamster", "conditions": "chinese hamster, aerobic v79 cells, V79 cells, aerobic, 1 hour, 37° C.; 50% inhibition of clonogenicity", "method": "as §1\n(§2) To determine the fraction of surviving cells, samples were removed, diluted and plated to provide 2×10^2 to 2×10^4 cells/well on 60 mm Linbro multi-well plates (Flow Laboratories, McLean, Virginia). The plates were incubated at 37° C. for 6 days, stained with crystal violet and examined for colony formation. Colonies of 50 cells or greater were counted. Each plotted point in FIGS. 1 and 2 represent the mean of three or four replicate experiments."}, "[3]": {"test_system": "V79 Chinese hamster lung cells", "test": "Acute aerobic and hypoxic cytotoxicity (colony formation)", "assay_type": "cell-based", "method": "as §1, §2"}, "[4]": {"test": "Partition coefficient in octanol/water", "assay_type": "physicochemical", "method": "The partition coefficient of the hypoxia selective cytotoxins of the present invention were determined by the method of T. Fujita et al., J. Am. Chem. Soc., 86, 5175-5180 (1964), incorporated herein by reference."}, "[5]": {"biological_target": "T1, calf thymus Topo I (Bos taurus, UniProt F1MN93)", "T1 construct": "purchased TopoGEN, Inc., Columbus, Ohio; host or cells: calf thymus", "T1 sequence (F1MN93 1-767)": "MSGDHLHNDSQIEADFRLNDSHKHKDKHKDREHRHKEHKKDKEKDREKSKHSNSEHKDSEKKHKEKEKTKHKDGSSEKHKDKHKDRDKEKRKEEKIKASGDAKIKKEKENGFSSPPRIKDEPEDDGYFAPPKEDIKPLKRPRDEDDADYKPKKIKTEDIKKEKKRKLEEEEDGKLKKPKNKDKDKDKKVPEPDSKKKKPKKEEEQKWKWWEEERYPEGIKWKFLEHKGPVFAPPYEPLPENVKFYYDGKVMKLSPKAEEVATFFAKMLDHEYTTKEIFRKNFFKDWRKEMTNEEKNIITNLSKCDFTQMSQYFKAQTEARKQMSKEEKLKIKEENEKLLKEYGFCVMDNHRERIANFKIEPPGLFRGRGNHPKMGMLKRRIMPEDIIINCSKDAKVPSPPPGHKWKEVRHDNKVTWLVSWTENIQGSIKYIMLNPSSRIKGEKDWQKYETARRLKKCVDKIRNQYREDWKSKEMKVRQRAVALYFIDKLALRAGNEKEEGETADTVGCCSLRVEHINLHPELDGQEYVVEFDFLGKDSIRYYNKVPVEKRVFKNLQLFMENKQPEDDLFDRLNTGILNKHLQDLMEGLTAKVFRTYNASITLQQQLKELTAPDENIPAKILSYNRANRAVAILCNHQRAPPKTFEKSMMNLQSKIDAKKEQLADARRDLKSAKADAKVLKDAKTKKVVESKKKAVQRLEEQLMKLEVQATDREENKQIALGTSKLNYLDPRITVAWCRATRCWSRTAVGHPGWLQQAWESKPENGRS", "test": "Topoisomerase I interaction (relaxation of supercoiled DNA)", "assay_type": "biochemical", "method": "In particular, a Topo I drug screening kit (TopoGEN, Inc., Columbus, Ohio) was used to assay the topoisomerase I THNLA-1 interaction. […] Camptothecin is a Topoisomerase I poison used as an anticancer drug. Camptothecin stabilizes the Topo I-DNA cleavable complex, and therefore prevents the resealing of DNA by Topo-I.\nIndividual reaction mixtures were heated for 30 minutes at 37° C. on a heating block, and then 2 μl of 10% SDS - proteinase K solution was added to each reaction mixture. The resulting reaction mixtures then were heated for an additional 30 minutes at 37° C. The reaction mixtures in a loading buffer were extracted with CHCl3 prior to submarine electrophoresis on a 1% agarose gel. The DNA bands were observed visually by staining with ethidium bromide (0.5 μg/ml)."}, "[6]": {"test_system": "V79 cells", "test": "Drug uptake in the presence of ammonium chloride", "assay_type": "cell-based, Chinese hamster", "conditions": "aerobic V79 cells, 60 μM input, 50 mM NH4Cl (stated for THNLA-1)", "method": "Uptake measurements in the presence of the lysosomotropic agent ammonium chloride (NH4 Cl) also were performed in a manner as previously described.\nConcentrations were determined by UV spectrophotometry at 330 nm. The plotted points represent the mean of two experiments."}, "[7]": {"test_system": "solid tumors", "conditions": "cited from earlier work"}, "[8]": {"test_system": "V79 cells", "test": "Isoeffective to the oxygen dose (IsD)", "assay_type": "cell-based, Chinese hamster", "conditions": "Cricetulus griseus, V79, 1 h, 7.5 Gy, 1 hour at 37° C.; read-out: Isoeffective to the oxygen dose at 7.5 Gy: IsD(7.5)", "text": "The survival fraction under hypoxic conditions (plotted versus compound concentration) meets the aerobic survival fraction (radiation toxicity) at the IsD. The IsD value is a useful indicator of the overall potency of a compound as a sensitizer and cytotoxin of hypoxic cells. IsD is especially useful when comparing different compounds for hypoxic cytotoxicity and radiosensitizing efficacy.\nFIGS. 5 and 6 illustrate the IsD at 7.5 Gy (FIG. 5A) and 20 Gy (FIG. 5B). FIGS. 5A and 6A include a comparison to the prior art NLA-1 compound. V79 cells were irradiated at 7.5 Gy or 20 Gy after a 1 hour exposure under hypoxia (symbols) or air (straight line), at various drug concentrations. No toxicity or radiosensitization for any tested compound was observed under aerobic conditions over the tested concentration ranges. IsD values were calculated from the intersections of the survival fractions of the hypoxic curves with the survival fraction in air. All data points in FIGS. 5 and 6 represent the mean of two replicate experiments."}}, "note": "Values joined by “and” are separate entries in the source; they are usually repeats but may differ in a detail not shown here. Identical values can stand only once. Like-named read-outs stand apart in the source and are kept apart here."}
{"compound": "Cl.O=[N+]([O-])c1nccn1CCCNc1c2ccccc2nc2ccccc12", "note": "[NLA-1, 9-[3-(2-nitro-1-imidazolyl)propylamino]acridine hydrochloride, reference compound]", "values": [{"measurement": "EC (SER 1.6)", "setting": "[1]; 1 h, concentration yielding an SER of 1.6, hypoxic V79 cells, read-out: Hypoxic radiosensitizing potency: C1.6", "result": 8, "unit": "µM"}, {"measurement": "EC (SER 1.6)", "setting": "[1]; hypoxic radiosensitization, V79 cells (tables), read-out: Intracellular concentration at C1.6: C1.6i", "result": 885, "unit": "µM"}, {"measurement": "EC (SER 1.6)", "setting": "[1]; hypoxic radiosensitization, V79 cells, read-out: Intracellular concentration for an SER of 1.6: C1.6i", "result": 885, "unit": "µM"}, {"measurement": "radioprotection under aerobic conditions", "setting": "[1]; aerobic", "result": "afforded radioprotection under aerobic conditions"}, {"measurement": "IC50 at 1 h", "setting": "[2]", "result": 84, "unit": "µM"}, {"measurement": "IC50", "setting": "[3]; Cricetulus griseus, V79, 1 h, V79 cells, hypoxia, 1 hour, 37° C., 50% inhibition of clonogenicity", "result": 15, "unit": "µM"}, {"measurement": "Hypoxic selectivity (differential aerobic/hypoxic toxicity): IC50/A,1h /IC50/H,1h", "setting": "[3]; V79 cells, 1 hour, 37° C.", "result": 5.5}, {"measurement": "cytotoxicity / selectivity relative to THNLA-1 or NLA-1", "setting": "[3]; from IC50/H, IC50/A and their ratio", "result": "about a two times more potent hypoxic cytotoxin"}, {"measurement": "Partition coefficient in octanol/water: PCo/w", "setting": "[4]", "result": 0.07}, {"measurement": "logP", "setting": "[4]; read-out: Partition coefficient in octanol/water: PCo/w (converted)", "result": -1.15}, {"measurement": "Topo I-dependent single-stranded DNA cleavage", "setting": "[5]", "result": "observed"}, {"measurement": "IC50", "setting": "[5]; Topo I inhibition (50%)-dose, Topo I-induced relaxation of supercoiled DNA", "result": "~12 µM and 12 µM"}, {"measurement": "factor of decrease of Ci in the presence of NH4Cl", "setting": "[6]", "result": "about 3"}, {"measurement": "radiosensitization in vivo / in solid tumors (prior art)", "setting": "[7]", "result": "failure of NLA-1 as radiosensitizer in solid tumors"}, {"measurement": "EC (isoeffective to oxygen at 7.5 Gy)", "setting": "[8]", "result": "~11", "unit": "µM"}]}
